Measurements published in patent US8685924B2, “Preventives/remedies for stress urinary incontinence and method of screening the same” (Takeda Pharmaceutical Company Limited, priority 2004, dated 2014).

Columns and labels:
[1] = test system: urethane-anesthetized female rats; assay: Antagonism of the leak point pressure increase by WAY-161503 / WAY-163909, abdominal wall-electrically stimulating method (Example 3); format: in vivo, rat; conditions: for leak point pressure after drug administration / leak point pressure increase / leak point pressure before drug administration: i.v., mean ± SEM; for leak point pressure before drug administration: baseline
Procedure: SD female rats (body weight 180-350 g) were anesthetized with urethane (Wako Pure Chemical Industries, Ltd.), and the spinal cord was transected at T8-9 level to eliminate the reflex voiding. In addition, the nerve to the iliococcygeus muscle/pubococcygeus muscle on the one side was transected. During operation, halothane (Takeda Pharmaceutical Company Limited) anesthesia was added when necessary. A catheter (PE-90, Clay Adams) was inserted into the bladder and secured with a ligature, and the incised part of each of the abdominal muscle and skin was closed with sutures. The abdominal skin near the diaphragm was incised at two left and right positions to newly expose the abdominal muscle. An Evans Blue dye (Merck) solution was injected into the bladder, and the bladder volume was adjusted to 0.2-0.3 ml. The bladder catheter was connected to a pressure transducer, and the signals of the transducer were sent to a computer via an amplifier (blood pressure amplification unit AP-641G; NIHON KOHDEN) and an analog-to-digital converter (BIOPAC; MP100), and recorded on a hard disc. The data were analyzed on a computer using software (BIOPAC; AcqKnowledge). The exposed abdominal muscle was electrostimulated using an electrostimulator (SEN-3301; NIHON KODEN) and an isolator (SS-202J; NIHON KODEN), and the presence or absence of incontinence from the meatus urethra was observed. The electrostimulation was applied at a voltage of 2.5-50 V, duration of 0.5 milisec, and frequency 50 Hz for 1 sec, thereby gradually increasing the intravesical pressure. The peak intravesical pressure during stimulation of the abdominal wall was measured and, of the trials with observed incontinence, the lowest peak intravesical pressure was defined as the leak point pressure. Serotonin 5-HT receptor agonist, WAY-161503 (5-HT2C receptor agonist), WAY-163909 (5-HT2C receptor agonist), DOI (5-HT2A/2B/2C receptor agonist), mCPP (5-HT2B/2C receptor partial agonist), eltoprazine (5-HT1A/1B/2C receptor partial agonist), 8-OH-DPAT (5-HT1A receptor agonist), sumatryptan (5-HT1B/1D receptor agonist) and BW723C86 (5-HT2B receptor agonist) were intravenously administered, and the leak point pressure was compared before and after the administration. DOI, mCPP and eltoprazine were dissolved in saline, and other drugs were dissolved in DMA/PEG400 (1:1), and they were intravenously administered at 1 ml/kg and 0.5 mg/kg, respectively. Depending on the experiment, RS-102221 (serotonin 5-HT2C receptor antagonist) or SB221284 (serotonin 5-HT2B/2C receptor antagonist) was intravenously administered 5 min before WAY-161503 or WAY-163909 administration, and an antagonistic effect against the WAY-161503 or WAY-163909-induced increment of the leak point pressure was examined. RS-102221 and SB221284 were both dissolved in DMA/PEG400 (1:1) and intravenously administered at 0.5 ml/kg.

[2] = test system: urethane-anesthetized female rats; assay: Antagonism of the leak point pressure increase by WAY-161503 / WAY-163909, direct bladder compression method (Example 4); format: in vivo, rat; conditions: for leak point pressure after drug administration / leak point pressure increase / leak point pressure before drug administration: i.v., mean ± SEM; for leak point pressure before drug administration: baseline
Procedure: SD female rats (body weight 180-350 g) were anesthetized with urethane (Wako Pure Chemical Industries, Ltd.), and halothane (Takeda Pharmaceutical Company Limited) anesthesia was added when necessary during operation.
The spinal cord was transected at T8-9 level to eliminate the reflex voiding. The lower abdomen was incised in the median line, a catheter for intravesical pressure measurement (PE-90, Clay Adams) was inserted into the bladder and secured with a ligature, and the intravesical pressure was measured via a pressure transducer. Urine was emptized in advance by bilaterally pressing the bladder with two swabs, and a 0.1% Evans blue (Merck) solution (0.4 mL) was injected into the bladder. The bladder was gradually compressed bilaterally with two swabs, and the intravesical pressure upon saline leakage from the urethral orifice was measured and defined as a leak point pressure. The measurement of the leak point pressure was repeated, and the average value of the final five stable measures was taken as the value before drug administration. Thereafter, the drug was intravenously administered, the leak point pressure was measured again 20 min later, and the value after the drug administration was determined. DOI, mCPP and eltoprazine were dissolved in saline, and other drugs were dissolved in DMA/PEG400 (1:1), and intravenously administered at 1 ml/kg and 0.5 mg/kg, respectively. Depending on the experiment, RS-102221 or SB221284 (showing serotonin 5-HT2C receptor antagonist activity) was administered, 5 min later, WAY-161503 or WAY-163909 was administered, leak point pressure was measured 10 min later, and a competitive assay with the action of WAY-161503 or WAY-163909 was performed. RS-102221 and SB221284 were both dissolved in DMA/PEG400 (1:1), and intravenously administered at 0.5 ml/kg.

[3] = antagonist 1 mg/kg, i.v. 5 min before WAY-161503 0.3 mg/kg
[4] = antagonist 3 mg/kg, i.v. 5 min before WAY-161503 0.3 mg/kg
[5] = antagonist 3 mg/kg, i.v. 5 min before WAY-163909 0.3 mg/kg
[6] = antagonist 1 mg/kg, i.v. + WAY-161503 0.3 mg/kg
[7] = antagonist 3 mg/kg, i.v. + WAY-161503 0.3 mg/kg
[8] = antagonist 3 mg/kg, i.v. + WAY-163909 0.3 mg/kg
[9] = antagonist 1 mg/kg, i.v. 5 min before WAY-163909 0.3 mg/kg
[10] = antagonist alone 3 mg/kg, agonist: solvent, WAY-161503 series
[11] = antagonist alone 3 mg/kg, agonist: solvent, WAY-163909 series
[12] = intravenous, against WAY-163909
[13] = antagonist 0.1 mg/kg, i.v. 5 min before WAY-161503 0.3 mg/kg
[14] = antagonist 0.3 mg/kg, i.v. 5 min before WAY-161503 0.3 mg/kg
[15] = antagonist 0.1 mg/kg, i.v. 5 min before WAY-163909 0.3 mg/kg
[16] = antagonist 0.3 mg/kg, i.v. 5 min before WAY-163909 0.3 mg/kg
[17] = antagonist alone 0.3 mg/kg, agonist: solvent, WAY-163909 series

In the case of `COc1cc(OC)c(C(=O)CCCCN2CCC3(CC2)NC(=O)NC3=O)cc1NS(=O)(=O)c1ccc(C(F)(F)F)cc1` [RS102221], the “leak point pressure after drug administration” value [1, 3] is reported as 68.5 ± 6.1 cmH2O, the “leak point pressure increase” value [1, 3] is reported as 20.2 ± 4.1 cmH2O and the “leak point pressure after drug administration” value [1, 4] is reported as 50.0 ± 6.3 cmH2O. For the same compound, the “leak point pressure increase” value [1, 4] was 9.7 ± 2.1 cmH2O, the “leak point pressure after drug administration” value [1, 5] was 53.0 ± 7.0 cmH2O and the “leak point pressure increase” value [1, 5] was 6.5 ± 2.4 cmH2O. For the same compound, the “leak point pressure before drug administration” value [1, 6] was 48.3 ± 7.5 cmH2O, the “leak point pressure before drug administration” value [1, 7] was 40.3 ± 5.5 cmH2O and the “leak point pressure before drug administration” value [1, 8] was 46.5 ± 5.9 cmH2O. For the same compound, the “dose at which suppression of the leak point pressure increase was significant” value ([1]; intravenous, against WAY-161503 (0.3 mg/kg, i.v.) or WAY-163909 (0.3 mg/kg, i.v.)) was 3 mg/kg, the “leak point pressure after drug administration” value [2, 3] was 67.5 ± 5.4 cmH2O and the “leak point pressure increase” value [2, 3] was 12.8 ± 1.9 cmH2O. For the same compound, the “leak point pressure after drug administration” value [2, 9] was 74.1 ± 3.4 cmH2O, the “leak point pressure increase” value [2, 9] was 11.6 ± 2.4 cmH2O and the “leak point pressure after drug administration” value [2, 4] was 70.5 ± 1.8 cmH2O. For the same compound, the “leak point pressure increase” value [2, 4] was 9.8 ± 2.7 cmH2O, the “leak point pressure after drug administration” value [2, 5] was 70.9 ± 3.0 cmH2O and the “leak point pressure increase” value [2, 5] was 7.4 ± 1.4 cmH2O. The “leak point pressure after drug administration” value [2, 10] was 60.7 ± 6.2 cmH2O, the “leak point pressure increase” value [2, 10] was 3.8 ± 1.9 cmH2O and the “leak point pressure after drug administration” value [2, 11] was 59.2 ± 6.6 cmH2O. The “leak point pressure increase” value [2, 11] was −0.2 ± 2.1 cmH2O, the “leak point pressure before drug administration” value [2, 6] was 54.7 ± 6.1 cmH2O and the “leak point pressure before drug administration” value ([2]; antagonist 1 mg/kg, i.v. + WAY-163909 0.3 mg/kg) was 62.5 ± 3.1 cmH2O. For the same compound, the “leak point pressure before drug administration” value [2, 7] was 60.7 ± 3.3 cmH2O, the “leak point pressure before drug administration” value [2, 8] was 63.6 ± 3.3 cmH2O and the “leak point pressure before drug administration” value [2, 10] was 56.8 ± 5.5 cmH2O. For the same compound, the “leak point pressure before drug administration” value [2, 11] was 59.4 ± 7.0 cmH2O, the “dose at which suppression of the leak point pressure increase was significant” value ([2]; intravenous, against WAY-161503 (0.3 mg/kg, i.v.)) was 3 mg/kg and the “dose at which suppression of the leak point pressure increase was significant” value [2, 12] was 3 mg/kg.
In the case of `CSc1cc2c(cc1C(F)(F)F)N(C(=O)Nc1cccnc1)CC2` [SB221284], the “suppression of the leak point pressure increasing action” value ([1]; against WAY-161503) is reported as “suppressed the leak point pressure increasing action by WAY-161503 significantly”, the “leak point pressure after drug administration” value [1, 13] is reported as 66.9 ± 9.8 cmH2O and the “leak point pressure increase” value [1, 13] is reported as 13.6 ± 3.8 cmH2O. For the same compound, the “leak point pressure after drug administration” value [1, 14] was 46.8 ± 6.2 cmH2O, the “leak point pressure increase” value [1, 14] was −3.6 ± 1.4 cmH2O and the “leak point pressure before drug administration” value ([1]; antagonist 0.1 mg/kg, i.v. + WAY-161503 0.3 mg/kg) was 53.3 ± 7.0 cmH2O. The “leak point pressure before drug administration” value ([1]; antagonist 0.3 mg/kg, i.v. + WAY-161503 0.3 mg/kg) was 50.4 ± 6.3 cmH2O, the “leak point pressure after drug administration” value [2, 15] was 59.4 ± 3.9 cmH2O and the “leak point pressure increase” value [2, 15] was 6.2 ± 3.1 cmH2O. For the same compound, the “leak point pressure after drug administration” value [2, 16] was 60.7 ± 3.9 cmH2O, the “leak point pressure increase” value [2, 16] was 0.4 ± 1.7 cmH2O and the “leak point pressure after drug administration” value [2, 17] was 63.0 ± 2.0 cmH2O. The “leak point pressure increase” value [2, 17] was −1.2 ± 2.2 cmH2O, the “leak point pressure before drug administration” value ([2]; antagonist 0.1 mg/kg, i.v. + WAY-163909 0.3 mg/kg) was 53.2 ± 3.4 cmH2O and the “leak point pressure before drug administration” value ([2]; antagonist 0.3 mg/kg, i.v. + WAY-163909 0.3 mg/kg) was 60.3 ± 4.0 cmH2O. The “leak point pressure before drug administration” value [2, 17] was 64.2 ± 1.2 cmH2O and the “suppression of the leak point pressure increase” value [2, 12] was “significantly suppressed an increase in the leak point pressure by WAY-163909”.
